Where two headings read alike, the source gives them in different places.
Assays:
[1] = tested on: Sa; conditions: Table 7; cited from earlier work
[2] = tested on: Streptococcus pneumonia (Sp); conditions: cited from earlier work; for Sp MIC90: Table 7; for SP MIC90: Table 6
[3] = tested on: Pseudomonas aeruginosa (Pa); conditions: cited from earlier work
[4] = tested on: methicillin resistant Staphylococcus aureus (MRSA); conditions: cited from earlier work
[5] = Rat pharmacokinetic model (IV vs microspray aerosol, intratracheal); assay type: in vivo, rats; conditions: 10 mg/kg; for AUC / AUC(0-inf) / half-life: rat; for AUC: epithelial lining fluid (ELF); for AUC(0-inf) / half-life: serum; for half-life: read-out: Serum t1/2 (converted)
Method: […] Blood samples are taken at various times over 3 hours to determine the plasma pharmacokinetic parameters. […] The plasma and tissue concentrations are determined by an HPLC method and the data are then fit using WinNonlin.

[6] = tested on: P. aeruginosa strain PAM 1723; assay: Mouse lung infection efficacy model; conditions: Pseudomonas aeruginosa, PAM1723, in Mus musculus
Method: The inoculum is adjusted to ca. 5×10^6 CFU/ml by correlation of absorbance at 600 nm with predetermined plate counts. […] On day 5, mice are infected by an intratracheal instillation of 0.05 ml of inoculum while under isoflurane anesthesia (5% isoflurane in oxygen running at 4 L/min). […] Mice are sacrificed 1 and 4 hours after treatment, their lungs removed, homogenized and plated to determine colony counts.

[7] = tested on: MSSA; conditions: Table 6; cited from earlier work
[8] = physchem
Method: A 2 to 20 mg sample of each antibiotic was weighed into sterile plastic tubes and brought up with a volume of sterile water to make a 10 mg/mL solution or suspension of the antibiotic. Samples were incubated for approximately 10 minutes at room temperature with occasional mixing, prior to further handling.
The insoluble solutions were titrated with 1N HCl to the point of visible solubility, and the pH of the solubilized solution determined.
After the pH adjustment, and following a further 10 minute incubation period with occasional mixing, the final appearance of the solutions was determined, just prior to the aerosol tolerability and taste test.

[9] = in vivo
Method: In the second test, the tolerability and taste of a small aerosol sample from a 0.5 ml aliquot of the test formulation was determined in a single healthy human volunteer, following nebulization in a PARI eFlow nebulizer (Table 12).
The tolerability and taste of the drug during a very brief administration period and for a period of 10 minutes post administration were monitored. Tolerability parameters were of the following types: (i) cough, cough sensation, or sneezing (ii) irritation, burning or tightness of throat, (ii) irritation or runniness in nasal passages or eyes, (iii) irritation, burning or tightness of the lungs or shortness of breadth, and (iv) dizziness, headache, nausea or other systemic effects.

Row | SMILES | Sa MIC90 [1] [µg/mL] | Sp MIC90 [2] [µg/mL] | Pa MIC90 ([3]; Table 7) [µg/mL] | MRSA MIC90 ([4]; Table 7) [µg/mL] | also measured
1 | CNC1CCCN(c2c(F)cc3c(=O)c(C(=O)O)cn(C4CC4)c3c2OC)C1 (stereo not drawn) [Balofloxacin] | 0.25 | 0.5 | 32 | 8 | –
2 | NC1CCN(c2c(F)cc3c(=O)c(C(=O)O)cn(C4CC4)c3c2Cl)C1 (stereo not drawn) [Clinafloxacin] | 0.06 | 0.06 | 4 | 2 | AUC ([5]; inhaled or intranasal, IT): 30.8 µg·h/mL; AUC(0-inf) ([5]; inhaled or intranasal, IT): 3.2 µg·h/mL; half-life ([5]; inhaled or intranasal, IT): 44.4 min; log reduction at 10 mg/kg ([6]; 1 h, read-out: DeltaLOG CPU 1 hr, route IT, dose 10 mg/kg, 1 hr post-drug administration): 2.71; log reduction at 25 mg/kg ([6]; 1 h, read-out: DeltaLOG CPU 1 hr, route IT, dose 25 mg/kg, 1 hr post-drug administration): 2.86; log reduction at 10 mg/kg ([6]; 4 h, read-out: DeltaLOG CPU 4 hr, route IT, dose 10 mg/kg, 4 hr post-drug administration): 2.4; log reduction at 25 mg/kg ([6]; 4 h, read-out: DeltaLOG CPU 4 hr, route IT, dose 25 mg/kg, 4 hr post-drug administration): 2.47; log reduction at 10 mg/kg ([6]; ip, 1 h, read-out: DeltaLOG CPU 1 hr, route IP, dose 10 mg/kg, 1 hr post-drug administration): 0.96; log reduction at 25 mg/kg ([6]; ip, 1 h, read-out: DeltaLOG CPU 1 hr, route IP, dose 25 mg/kg, 1 hr post-drug administration): 1.32; log reduction at 10 mg/kg ([6]; ip, 4 h, read-out: DeltaLOG CPU 4 hr, route IP, dose 10 mg/kg, 4 hr post-drug administration): 1.39; log reduction at 25 mg/kg ([6]; ip, 4 h, read-out: DeltaLOG CPU 4 hr, route IP, dose 25 mg/kg, 4 hr post-drug administration): 1.33
3 | CN1C[C@@H]2C[C@H]1CN2c1cc2c(cc1F)c(=O)c(C(=O)O)cn2C1CC1 [Danofloxacin] | 0.125 | – | >16 | – | –
4 | CN1CCN(c2cc3c(cc2F)c(=O)c(C(=O)O)cn3-c2ccc(F)cc2)CC1 [Difloxacin] | 0.5 | 2 | 32 | – | –
5 | CCn1cc(C(=O)O)c(=O)c2cc(F)c(N3CCNCC3)nc21 [Enoxacin] | 1 | 16 | >32 | >4 | –
6 | CCN1CCN(c2cc3c(cc2F)c(=O)c(C(=O)O)cn3C2CC2)CC1 [Enrofloxacin] | 0.125 | 1 | >16 | 8 | –
7 | CN1CCN(c2c(F)cc3c(=O)c(C(=O)O)cn(CCF)c3c2F)CC1 [Fleroxacin] | 1 | 8 | 32 | >4 | –
8 | C[C@H]1NCc2cc(-c3ccc4c(=O)c(C(=O)O)cn(C5CC5)c4c3OC(F)F)ccc21 [Garenoxacin] | 0.06 | 0.06 | >32 | 8 | –
9 | Cc1c(F)c(N2CCNC(C)C2)cc2c1c(=O)c(C(=O)O)cn2C1CC1 (stereo not drawn) [Grepafloxacin] | 0.125 | 0.5 | >32 | 32 | –
10 | CN1CCN(c2c(F)cc3c(=O)c(C(=O)O)cn4c3c2OCN4C)CC1 [Marbofloxacin] | – | – | – | – | MSSA MIC90 [7]: 2 µg/mL; Initial Solution pH ([8]; 10 mg/mL in sterile water): 6.5; Initial Solution Appearance ([8]; 10 mg/mL in sterile water, room temperature): white, very turbid, visible; After pH Adjustment Appearance ([8]; 10 mg/mL, titrated with 1N HCl): White, turbid, visible; After pH Adjustment pH ([8]; 10 mg/mL, titrated with 1N HCl): 1.5; pH of final solution ([8]; final solution, 10 mg/mL): 1.5; solubility on titration with 1N HCl ([8]; pH 1.5): solubility was not reached by pH 1.5; SP MIC90 [2]: 2 µg/mL; Pa MIC90 ([3]; Table 6): 8 µg/mL
11 | COc1c(N2C[C@@H]3CCCN[C@@H]3C2)c(F)cc2c(=O)c(C(=O)O)cn(C3CC3)c12 [Moxifloxacin] | – | – | – | – | Aerosol Tolerability and Taste [9]: moderate bitter unpleasant taste, some; cough on aerosol exposure [9]: associated with cough; solubility/pH characteristics [8]: best solubility/pH characteristics; solubility at 10 min ([8]; aqueous buffer, thermodynamic from solid): > 10000 µg/mL
12 | CCn1cc(C(=O)O)c(=O)c2cc(F)c(N3CCNCC3)cc21 [Norfloxacin] | 1 | 16 | 16 | >4 | F, % from Lung vs. IV ([5]; IT): 100%; AUC ([5]; inhaled or intranasal, IT): 41.7 µg·h/mL; AUC ([5]; iv): 3.27 µg·h/mL
13 | Cc1c(N2C[C@@H](N)C3(CC3)C2)c(F)c(N)c2c(=O)c(C(=O)O)cn(C3CC3)c12 [Olamufloxacin] | 1 | 0.06 | 16 | 2 | –
14 | C[C@H]1COc2c(C3(N)CC3)c(F)cc3c(=O)c(C(=O)O)cn1c23 [Pazufloxacin] | 0.5 | 4 | >32 | >16 | –
15 | CCn1cc(C(=O)O)c(=O)c2cc(F)c(N3CCN(C)CC3)cc21 [Pefloxacin] | – | – | – | – | MSSA MIC90 [7]: 2 µg/mL; SP MIC90 [2]: 32 µg/mL; Pa MIC90 ([3]; Table 6): >32 µg/mL; MRSA MIC90 ([4]; Table 6): >32 µg/mL
16 | Cc1oc(=O)oc1CN1CCN(c2cc3c(cc2F)c(=O)c(C(=O)O)c2n3C(C)S2)CC1 (stereo not drawn) [Prulifloxacin] | 0.25 | 1 | 16 | 32 | –
17 | CN1CCN(c2c(F)cc3c(=O)c(C(=O)O)cn4c3c2SCC4)CC1 [Rufloxacin] | 2 | 32 | 32 | 64 | –
18 | O=C(O)c1cn(-c2ccc(F)cc2)c2cc(N3CCNCC3)c(F)cc2c1=O [Sarafloxacin] | 0.25 | – | >16 | >16 | –
19 | N[C@@H]1CN(c2c(F)cc3c(=O)c(C(=O)O)cn([C@@H]4C[C@@H]4F)c3c2Cl)CC12CC2 [Sitafloxacin] | 0.125 | 0.06 | 8 | 4 | –
20 | NC[C@H]1O[C@H](O[C@H]2[C@H](O)[C@@H](O[C@H]3O[C@H](CO)[C@@H](O)[C@H](N)[C@H]3O)[C@H](N)C[C@@H]2N)[C@H](N)C[C@@H]1O [Tobramycin] | – | – | – | – | F, % from Lung vs. IV ([5]; IT): 81%; AUC ([5]; inhaled or intranasal, IT): 5150 µg·h/mL; AUC ([5]; iv): 27.6 µg·h/mL; AUC(0-inf) ([5]; inhaled or intranasal, IT): 13.8 µg·h/mL; half-life ([5]; inhaled or intranasal, IT): 60 min; AUC(0-inf) ([5]; iv): 15.7 µg·h/mL; half-life ([5]; iv): 30 min; log reduction at 5 mg/kg ([6]; 1 h, read-out: DeltaLOG CPU 1 hr, route IT, dose 5 mg/kg, 1 hr post-drug administration): 1.59; log reduction at 5 mg/kg ([6]; 4 h, read-out: DeltaLOG CPU 4 hr, route IT, dose 5 mg/kg, 4 hr post-drug administration): 0.94; log reduction at 5 mg/kg ([6]; ip, 1 h, read-out: DeltaLOG CPU 1 hr, route IP, dose 5 mg/kg, 1 hr post-drug administration): 0.7; log reduction at 5 mg/kg ([6]; ip, 4 h, read-out: DeltaLOG CPU 4 hr, route IP, dose 5 mg/kg, 4 hr post-drug administration): -0.29

Reference: patent US10987357B2, “Aerosolized fluoroquinolones and uses thereof” (Horizon Orphan, LLC, priority 2005, dated 2021)
